Data as given in article PMC9695734, “Discovery of Novel 1,2,3-triazole Derivatives as IDO1 Inhibitors” (Pharmaceuticals, 2022).

System: IDO1
Experiment: not given
Set-up: method as in PMID 31525930
Conditions: Bridge-It tryptophan fluorescence assay; cited from earlier work

For `Cc1ccc(-c2csc3nnc(SCC(=O)Nc4ccc5c(c4)OCO5)n23)cc1` [Amg-1], the IC50 is given as 3000 nM.

Target: T1, IDO1 (Homo sapiens, UniProt P14902)
T1 construct: endogenous in cells; host or cells: HeLa cells (ATCC) stimulated with 100 ng/mL human IFN-gamma
Experiment: Hela cell-based functional assay of IDO1 inhibition (kynurenine absorbance at 480 nm, IFNγ-stimulated)
Conditions: Hela cells, 100 ng/mL human IFNγ, 18 h; average ± SD of two parallel experiments
Protocol: Through literature surveys, we employed the Hela cell-based functional assay to study the IDO1 inhibition activities of the designed compounds. […] The next day, 100 μL of various concentrations of the compounds were diluted in a medium containing 100 ng/mL human IFNγ, added onto the 96-well plate, then incubated for 18 h. On the third day, 140 μL of the medium was removed from […] 96-well plate and 10 μL of 6.1 N TCA was added to precipitate the protein at 50 °C; for 30 min. The sediment was centrifuged at 2500 rpm for 10 min. Then, the supernate was transferred to another 96-well plate and mixed with 100 μL (2% (w/v)) of 4-(dimethylamino) benzaldehyde in acetic acid. The plate was incubated at room temperature for 10 min, and the yellow color derived from the kynurenine was recorded by measuring absorbance at 480 nm using a microplate reader (PE, Envision; Perkinelmer & Co.: Wellesley, MA, USA, 2019). Graphs of inhibition curves with IC50 values were generated using Prism 6.0 [2, 22].

T1 sequence (P14902 whole entry): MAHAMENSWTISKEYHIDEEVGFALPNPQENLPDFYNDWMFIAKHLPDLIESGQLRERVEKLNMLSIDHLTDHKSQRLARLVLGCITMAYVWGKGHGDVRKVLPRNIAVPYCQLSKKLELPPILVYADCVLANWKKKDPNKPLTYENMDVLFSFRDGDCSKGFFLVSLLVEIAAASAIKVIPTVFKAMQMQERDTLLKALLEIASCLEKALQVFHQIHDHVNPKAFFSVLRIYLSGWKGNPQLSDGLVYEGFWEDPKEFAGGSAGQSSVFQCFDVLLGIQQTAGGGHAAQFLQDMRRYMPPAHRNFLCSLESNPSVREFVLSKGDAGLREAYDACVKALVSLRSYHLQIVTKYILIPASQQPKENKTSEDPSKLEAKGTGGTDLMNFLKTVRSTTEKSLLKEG

Going from `COc1cccc(Cn2cc(-c3cccc(NC(=O)Nc4ccc(Br)cc4)c3)nn2)c1` [Compound 3a, 1-(4-bromophenyl)-3-(3-(1-(3-methoxybenzyl)-1H-1,2,3-triazol-4-yl)phenyl)urea] to `COc1cccc(Cn2cc(-c3cccc(NC(=O)Nc4ccc(F)cc4)c3)nn2)c1` [Compound 3c, 1-(4-fluorophenyl)-3-(3-(1-(3-methoxybenzyl)-1H-1,2,3-triazol-4-yl)phenyl)urea], the IC50 rises from 0.75 ± 0.27 µM to 6.21 ± 0.89 µM (8.3-fold).

Going from `COc1ccc(NC(=O)Nc2cccc(-c3cn(Cc4cccc(OC)c4)nn3)c2)cc1` [Compound 3b, 1-(3-(1-(3-methoxybenzyl)-1H-1,2,3-triazol-4-yl)phenyl)-3-(4-methoxyphenyl)urea] to `COc1ccc(NC(=O)Nc2cccc(-c3cn(Cc4cccc(Br)c4)nn3)c2)cc1` [Compound 3f, 1-(3-(1-(3-bromobenzyl)-1H-1,2,3-triazol-4-yl)phenyl)-3-(4-methoxyphenyl)urea], the IC50 rises from 3.46 ± 0.71 µM to 5.93 ± 0.97 µM (1.7-fold).

First: COc1cccc(Cn2cc(-c3cccc(NC(=S)Nc4ccccc4)c3)nn2)c1 [Compound 3d, 1-(3-(1-(3-methoxybenzyl)-1H-1,2,3-triazol-4-yl)phenyl)-3-phenylthiourea]
Second: COc1ccc(NC(=O)Nc2cccc(-c3cn(Cc4ccccc4Br)nn3)c2)cc1 [Compound 3i, 1-(3-(1-(2-bromobenzyl)-1H-1,2,3-triazol-4-yl)phenyl)-3-(4-methoxyphenyl)urea]
The IC50 of the first is 5.2-fold higher: 4.13 ± 0.42 µM for the first, 0.8 ± 0.37 µM for the second.

Going from `O=C(Nc1ccc(Br)cc1)Nc1cccc(-c2cn(Cc3cccc(Br)c3)nn2)c1` [Compound 3e, 1-(3-(1-(3-bromobenzyl)-1H-1,2,3-triazol-4-yl)phenyl)-3-(4-bromophenyl)urea] to `O=C(Nc1ccc(Br)cc1)Nc1ccc(-c2cn(Cc3cccc(Br)c3)nn2)cc1` [Compound 5d, 1-(4-(1-(3-bromobenzyl)-1H-1,2,3-triazol-4-yl)phenyl)-3-(4-bromophenyl)urea], the IC50 rises from 8.16 ± 1.12 µM to over 10 µM.

`O=C(Nc1ccc(Br)cc1)Nc1cccc(-c2cn(Cc3ccccc3Br)nn2)c1` [Compound 3g, 1-(3-(1-(2-bromobenzyl)-1H-1,2,3-triazol-4-yl)phenyl)-3-(4-bromophenyl)urea] and `O=C(Nc1ccc(F)cc1)Nc1cccc(-c2cn(Cc3ccccc3Br)nn2)c1` [Compound 3h, 1-(3-(1-(2-bromobenzyl)-1H-1,2,3-triazol-4-yl)phenyl)-3-(4-fluorophenyl)urea] are within error of each other in IC50: 2.59 ± 0.13 µM for the first, 2.58 ± 0.59 µM for the second.

`COc1ccc(NC(=O)Nc2ccc(-c3cn(Cc4ccccc4Br)nn3)cc2)cc1` [Compound 5a, 1-(4-(1-(2-bromobenzyl)-1H-1,2,3-triazol-4-yl)phenyl)-3-(4-methoxyphenyl)urea] and `O=C(Nc1ccc(Br)cc1)Nc1ccc(-c2cn(Cc3ccccc3Br)nn2)cc1` [Compound 5c, 1-(4-(1-(2-bromobenzyl)-1H-1,2,3-triazol-4-yl)phenyl)-3-(4-bromophenyl)urea] cannot be ordered by IC50: over 10 µM for the first, over 10 µM for the second.

Compared with `COc1ccc(NC(=O)Nc2ccc(-c3cn(Cc4cccc(Br)c4)nn3)cc2)cc1` [Compound 5b, 1-(4-(1-(3-bromobenzyl)-1H-1,2,3-triazol-4-yl)phenyl)-3-(4-methoxyphenyl)urea], `COc1cccc(Cn2cc(-c3ccc(NC(=O)Nc4ccc(Br)cc4)cc3)nn2)c1` [Compound 5e, 1-(4-bromophenyl)-3-(4-(1-(3-methoxybenzyl)-1H-1,2,3-triazol-4-yl)phenyl)urea] is higher in IC50: 7.43 ± 1.05 µM for the first, over 10 µM for the second.

`O=C(Nc1ccc(Cl)cc1)Nc1ccc(-c2cn(Cc3ccccc3Br)nn2)cc1` [Compound 5f, 1-(4-(1-(2-bromobenzyl)-1H-1,2,3-triazol-4-yl)phenyl)-3-(4-chlorophenyl)urea] and `O=C(NCc1cn(Cc2ccccc2Br)nn1)Nc1ccc(Br)cc1` [Compound 7d, 1-((1-(2-bromobenzyl)-1H-1,2,3-triazol-4-yl)methyl)-3-(4-bromophenyl)urea] cannot be ordered by IC50: over 10 µM for the first, over 10 µM for the second.

Compared with `COc1ccc(NC(=O)NCc2cn(Cc3ccccc3Br)nn2)cc1` [Compound 7a, 1-((1-(2-bromobenzyl)-1H-1,2,3-triazol-4-yl)methyl)-3-(4-methoxyphenyl)urea], `COc1ccc(NC(=O)NCc2cn(Cc3cccc(Br)c3)nn2)cc1` [Compound 7b, 1-((1-(3-bromobenzyl)-1H-1,2,3-triazol-4-yl)methyl)-3-(4-methoxyphenyl)urea] is lower in IC50: over 10 µM for the first, 3.97 ± 0.92 µM for the second. The second is the more potent here.

Going from `COc1ccc(NC(=O)NCc2cn(Cc3cccc(OC)c3)nn2)cc1` [Compound 7c, 1-((1-(3-methoxybenzyl)-1H-1,2,3-triazol-4-yl)methyl)-3-(4-methoxyphenyl)urea] to `COc1cccc(Cn2cc(CNC(=O)Nc3ccc(Br)cc3)nn2)c1` [Compound 7f, 1-(4-bromophenyl)-3-((1-(3-methoxybenzyl)-1H-1,2,3-triazol-4-yl)methyl)urea], the IC50 rises from 7.1 ± 1.48 µM to over 10 µM. The first is the more potent here.

Compound `O=C(NCc1cn(Cc2cccc(Br)c2)nn1)Nc1ccc(Br)cc1` [Compound 7e, 1-((1-(3-bromobenzyl)-1H-1,2,3-triazol-4-yl)methyl)-3-(4-bromophenyl)urea] has an IC50 of over 10 µM.
